Measured values reported in PubChem BioAssay AID856 (The Scripps Research Institute Molecular Screening Center, 2007).
Values joined by “and” are separate entries in the source; they are usually repeats but may differ in a detail not shown here. Identical values can stand only once. Active and inactive are the calls of the source. How the calls were made is not given here.

What follows are compounds tested on CRE-bla reporter cells, beta-lactamase FRET, antagonist mode (assay: inhibition of CRE beta-lactamase reporter – cell-based, beta-lactamase FRET, counter-screen for S1P2 antagonist project, dose response (AID 856)).
With `FC(F)(F)c1cnc2c(-c3cccs3)csc2c1` the IC50 was > 40000 nM (inactive).
In the case of `O=S1(=O)C=C(Sc2nc3cc(Cl)ccc3o2)c2ccccc21`, the IC50 is reported as 4040 nM.
In the case of `O=C(OCn1ncc(Cl)c(Cl)c1=O)c1ccccc1Cl`, the IC50 is reported as 2580 nM.
For `CCn1c(=O)c(C(=O)Nc2nc3ccccc3[nH]2)c(O)c2ccccc21`, the IC50 was 29100 nM (inactive).
In the case of `O=C(O)c1sc2cc(C(F)(F)F)cnc2c1-c1cccs1`, the IC50 is reported as > 40000 nM (inactive).
With `COc1ccc(NC(=O)/C(Cl)=C(/Cl)S(=O)(=O)Cc2ccc(C)cc2)cn1` the IC50 was 1430 nM.
`CN(C)C=NC(=O)c1sc2cc(C(F)(F)F)cnc2c1-c1ccccc1` was tested, and the IC50 was > 40000 nM (inactive).
`Cc1ccc(C(=O)OCn2ncc(Cl)c(Cl)c2=O)cc1` gave an IC50 of 3080 nM.
Work on `CCC(NC(=O)Nc1nnc(C(F)(F)F)s1)(C(F)(F)F)C(F)(F)F` yielded an IC50 of 1260 nM.
`CC(=O)Nc1cc(OC(C)=O)c2nonc2c1OC(C)=O` showed an IC50 of 3340 nM.
Compound `CCCC(=O)N1CCN(c2ccc(NC(=O)c3cc4ccccc4o3)cc2Cl)CC1` has an IC50 of 2950 nM.
`COc1ccccc1C(=O)Nc1nc(-c2ccc(S(=O)(=O)N3CCOCC3)cc2)cs1` showed an IC50 of 2250 nM.
`COc1ccc(NC(=O)/C(Cl)=C(/Cl)S(=O)(=O)Cc2ccccc2)cn1` showed an IC50 of 1560 nM.
`Cn1c(-c2c(N)n(C3CCCC3)c3nc4ccccc4nc23)nc2ccccc21` was tested, and the IC50 was 2370 nM.
In the case of `O=C(O)c1sc2cc(C(F)(F)F)cnc2c1-c1ccco1`, the IC50 is reported as > 40000 nM (inactive).
For `CCOC(=O)c1cnc(-n2nc(C)cc2C)nc1NC1CCCCC1`, the IC50 was 1750 nM.
In the case of `CCCCCCCCNc1ncnc2ccccc12`, the IC50 is reported as 42 nM.
Compound `N#CC(c1cccc(Cl)c1)c1ccc2c(C(F)(F)F)cc(C(F)(F)F)nc2n1` (configuration not stated) has an IC50 of 90 nM.
In the case of `O=C(O)c1sc2cc(C(F)(F)F)cnc2c1-c1cccnc1`, the IC50 is reported as > 40000 nM (inactive).
`O=C(C#Cc1cccc([N+](=O)[O-])c1)c1ccccc1` showed an IC50 of 2270 nM.
For `CCCCCCCCCn1c2c(c(=N)c3c1CCC3)CCC2`, the IC50 was 459 nM.
Compound `Cc1ccc(-n2c(-c3ccc(Br)cc3)c[n+]3c2CCc2ccc4cccnc4c2-3)cc1` has an IC50 of 1490 nM.
`O=C(NC(Nc1nc2ccc([N+](=O)[O-])cc2s1)(C(F)(F)F)C(F)(F)F)c1ccccc1` gave an IC50 of 101 nM.
`O=C(Nc1ccc(F)cc1)c1cccs1` was tested, and the IC50 was > 40000 nM (inactive).
In the case of `COC(=O)c1sc2cc(C(F)(F)F)cnc2c1-c1ccccc1`, the IC50 is reported as > 40000 nM (inactive).
In the case of `FC(F)(F)c1cnc2c(-c3cccs3)c(-c3ncn[nH]3)sc2c1`, the IC50 is reported as > 40000 nM (inactive).
`O=C(c1cc(NC(=O)C23CC4CC(CC(C4)C2)C3)cc(NC(=O)C23CC4CC(CC(C4)C2)C3)c1)N1CCCCC1` gave an IC50 of 793 nM.
`Cc1n[nH]c(C)c1N1C(=O)c2cccc3c(Br)ccc(c23)C1=O` was tested, and the IC50 was 5750 nM.
In the case of `CCN(CC)c1ccc2c(Cl)c(Br)c(=O)oc2c1`, the IC50 is reported as 4370 nM.
Work on `CCN(C(=O)c1ccc(C(C)(C)C)cc1)c1nnc(Cn2nnc3ccccc32)s1` yielded an IC50 of 1800 nM.
`Fc1ccc(-n2nnnc2-c2cnc(-c3cccs3)nc2C(F)(F)F)cc1` showed an IC50 of 2920 nM.
Compound `Cn1nc(-c2ccc(Cl)cc2)nc2c(=O)n(C)c(=O)nc1-2` has an IC50 of 634 nM.
With `Cc1nc(-c2cccs2)sc1C(=O)Nc1ccc(F)cc1` the IC50 was > 40000 nM (inactive).
With `O=C(Nc1ccc(F)cc1)c1sc2cc(C(F)(F)F)cnc2c1-c1cccs1` the IC50 was > 50 µM (inactive) and > 40 µM (inactive).
With `Cc1nn(-c2ccccc2)c2c1C(c1ccc(O)c(O)c1)N1C(=N2)C(Nc2ccccc2)=Nc2ccccc21` (configuration not stated) the IC50 was 10500 nM (inactive).
`Cc1ccc2[nH]c3c(N4CCc5ccccc5C4)ncnc3c2c1` gave an IC50 of 569 nM.
`COc1cccc(-c2nnc3n2N=C(C(C)(C)C)CS3)c1` was tested, and the IC50 was 1070 nM.
In the case of `COC(=O)C1CN(C#N)N(c2ccc(Cl)cc2)C12c1ccccc1-c1ccccc12` (configuration not stated), the IC50 is reported as 607 nM.
In the case of `COc1ccc2c(c1)[nH]c1c(N3CCN(Cc4ccc5c(c4)OCO5)CC3)ncnc12`, the IC50 is reported as 1400 nM.
Work on `Cc1ccc(-c2nn(-c3ccccc3)cc2/C=N/NC(=O)c2ccc(Br)o2)cc1` yielded an IC50 of 1820 nM.
For `COC(=O)c1sc2cc(C(F)(F)F)cnc2c1-c1ccccn1`, the IC50 was > 40000 nM (inactive).
For `O=C(O)c1sc2cc(C(F)(F)F)cnc2c1-c1ccccc1`, the IC50 was > 40000 nM (inactive).
For `Nc1nc(Cl)cc(N2CCC(c3cc(-c4ccc(Cl)cc4)n[nH]3)CC2)n1`, the IC50 was 1490 nM.
Compound `COc1ccc(NC(=O)/C(Cl)=C(/Cl)S(=O)Cc2ccccc2)cn1` (configuration not stated) has an IC50 of 1280 nM.
With `COc1ccc(NC(=O)/C(Cl)=C(/Cl)S(=O)Cc2ccc(C)cc2)cn1` (configuration not stated) the IC50 was 752 nM.
In the case of `O=C(Nc1ccc(F)cc1)c1sc(-c2ccccc2)nc1C(F)(F)F`, the IC50 is reported as > 40000 nM (inactive).
`Cc1cc(/C=N/n2cnnc2)c(C)n1-c1ccc(OCc2ccc(Cl)cc2)cc1` gave an IC50 of 362 nM.
In the case of `COC(=O)c1sc2cc(C(F)(F)F)cnc2c1-c1cccnc1`, the IC50 is reported as > 40000 nM (inactive).
`Cc1ccsc1C(=O)Nc1ccc(F)cc1` was tested, and the IC50 was > 40000 nM (inactive).
For `O=C(OCn1ncc(Cl)c(Cl)c1=O)c1ccc(F)cc1`, the IC50 was 3810 nM.
`COc1ccc(CS(=O)(=O)/C(Cl)=C(/Cl)C(=O)Nc2ccc(OC)nc2)cc1` gave an IC50 of 1840 nM.
Work on `CCN1/C(=C/c2ccc3ccccc3[n+]2CC)C=Cc2ccccc21` yielded an IC50 of 1080 nM.
With `CCCCS(=O)(=O)/C=C\C=C/S(=O)(=O)CCCC` the IC50 was 1960 nM.
In the case of `O=S(=O)(C/C(=C/CO)S(=O)(=O)c1ccccc1)c1ccccc1`, the IC50 is reported as 3710 nM.
For `O=C(c1sc2cc(C(F)(F)F)cnc2c1-c1ccccc1)N1CCOCC1`, the IC50 was > 40000 nM (inactive).
Compound `CC1=C(C)/C(=N\OS(=O)(=O)c2ccccc2)C=CC1=O` has an IC50 of 2650 nM.
For `CCCCCCCCCCn1c2c(c(=N)c3c1CCC3)CCC2`, the IC50 was 333 nM.
In the case of `N#C/C(=C/c1ccc(N2CCCCCC2)o1)c1ccc(F)cc1`, the IC50 is reported as 9670 nM.
With `CCOC(=O)C1C(=O)CC(C)(O)C(C(=O)OCC)C1c1ccccc1` (configuration not stated) the IC50 was > 50000 nM (inactive).
Compound `Cc1cccc(NC2=Nc3ccccc3N3C2=Nc2c(c(C)nn2-c2ccccc2)C3c2ccc(O)c(O)c2)c1` (configuration not stated) has an IC50 of 8000 nM.
For `CCN1/C(=C\C=C\C2=[N+](CC)c3ccccc3C2(C)C)C(C)(C)c2ccccc21`, the IC50 was 64 nM.
With `CC1=C/C(=N\OS(=O)(=O)c2ccccc2)C=CC1=O` the IC50 was 2920 nM.
With `O=C(O)c1sc2cc(C(F)(F)F)cnc2c1-c1ccccn1` the IC50 was > 40000 nM (inactive).
`CC1=C/C(=N\OS(=O)(=O)c2ccccc2)C(C)=CC1=O` gave an IC50 of 2390 nM.
With `CCOC(=O)N1CCN(C(=O)CSCC(=O)Nc2nc(-c3ccc(-c4ccccc4)cc3)cs2)CC1` the IC50 was 873 nM.
With `Cn1c2c(c(=O)n(C)c1=O)C(C(F)(F)F)(C(F)(F)F)N=C(c1ccc(Cl)cc1)N2` the IC50 was 1200 nM.
With `Cc1ccc(NC2=Nc3ccccc3N3C2=Nc2c(c(C)nn2-c2ccccc2)C3c2ccc(O)c(O)c2)cc1` (configuration not stated) the IC50 was 9980 nM.
For `O=C(Nc1ccc(F)cc1)c1sccc1S(=O)(=O)Cc1cccc(C(F)(F)F)c1`, the IC50 was > 40000 nM (inactive).
For `NC(=O)c1sc2cc(C(F)(F)F)cnc2c1-c1cccs1`, the IC50 was > 40000 nM (inactive).
With `COC(=O)c1sc2cc(C(F)(F)F)cnc2c1-c1cccs1` the IC50 was > 40000 nM (inactive).
With `COc1ccc(OC)c(NC(=O)CSc2ncnc3c2cnn3-c2ccccc2Cl)c1` the IC50 was 640 nM.
For `O=C(Nc1ccc(F)cc1)c1cc(-c2cccs2)nc2ccccc12`, the IC50 was > 40000 nM (inactive).
For `CN(C)C=NC(=O)c1sc2cc(C(F)(F)F)cnc2c1-c1cccs1`, the IC50 was > 40000 nM (inactive).
`O=C(Nc1ccc(S(=O)(=O)N2CCOCC2)cc1)c1ccc(CN2CCc3ccccc3C2)cc1` showed an IC50 of 773 nM.
`Cc1nc2c(=O)n(C)c(=O)nc-2n(C)n1` gave an IC50 of 1270 nM.
With `Cn1c(-c2c(N)n(CCCc3ccccc3)c3nc4ccccc4nc23)nc2ccccc21` the IC50 was > 50000 nM (inactive).
In the case of `Cc1ccc2[nH]c3c(N4CCCCCC4)ncnc3c2c1`, the IC50 is reported as 1810 nM.
